Measured values as given in patent publication US20230047816A1 (priority 2018, published 2023).

Key:
[1] = tested on: neurons from Cln7 knock out (KO) mice; assay: In vitro model of Batten disease, active Caspase-3 Western blot; format: cell-based, mouse; conditions: 10 nM, 24 hours
Experimental: Primary cultures of C57BL/6J WT and Cln7Δex2 mice cortical neurons were prepared from fetal animals of 14.5 days of gestation, seeded at 1.8·10^5 cells/cm2 in plastic plates coated with poly-D-lysine […] and incubated in Neurobasal (Life Technologies) supplemented with 2 mM glutamine, 5 mM of glucose, 0.25 mM pyruvate and 2% B27 supplement (Life Technologies). Cells were incubated at 37° C. in a humidified 5% CO2-containing atmosphere. At 72 hours after plating, medium was replaced using Neurobasal (Life Technologies) supplemented with 2 mM glutamine, 5 mM glucose, 0.25 mM pyruvate and 2% B27 supplement (Life Technologies) minus antioxidants (MAO; i.e., lacking vitamin E, vitamin E acetate, superoxide dismutase, catalase, and glutathione). Six days after the plating medium was replaced again. Cells were used at day 9.
Neurons were incubated with 10 nM or vehicle for 24 hours and apoptosis was evaluated by measuring the level of active Caspase-3 form using Western blot. Neurons were lysed in RIPA buffer (2% sodium dodecylsulphate, 2 mM EDTA, 2 mM EGTA and 50 mM Tris pH 7.5), supplemented with protease and phosphatase inhibitor cocktail (100 μM phenylmethylsulfonyl fluoride, 50 μg/ml antipapain, 50 μg/ml pepstatin, 50 μg/ml amastatin, 50 μg/ml leupeptin, 50 μg/ml bestatin, 1 mM o-vanadate, 50 mM NaF, and 50 μg/ml soybean trypsin inhibitor) and boiled for 5 min. […]

Cln7Δex2 mice = assay: AZ67 in vivo administration in Batten disease model; conditions: 1 nmol/mouse intracerebroventricularly every 24 h, two months
Experimental: AZ67 for in vivo usage was dissolved in 20% (wt/vol) PEG200 in PBS to a 20 mM concentration. 4 groups were generated (4-6 animals/group), namely: WT-vehicle, CLN7Δex2-vehicle, WT-AZ67, CLN7Δex2-AZ67. The canula was inserted intracerebroventricularly at the age of 8 weeks and, after at least of 15 days of recovery, we injected the AZ67 at the dose identified previously (l nmol/mouse) every 24 h. The duration of the experiment was determined by the presence of hindlimb clasping the CLN7Δex2-control (vehicle), being this time two months. After this, the animals were perfused, and their brains dissected to be investigated by immunofluorescence and electron microscopy (EM).
Mice (5 months for AZ67 intraventricular injections; 3 months for mCAT expression approach) were anaesthetized by intraperitoneal injection of a mixture of xylazine hydrochloride (Rompun; Bayer) and ketamine hydrochloride/chlorbutol (Imalgene; Merial) (1:4) at 1 ml per kg body weight and then perfused intra-aortically with 0.9% NaCl followed by 5 ml p/g body weight of Somogyi (4% (wt/vol) paraformaldehyde, and 0.2% (vol/vol) picric acid, in 0.1 M PB; pH 7.4). After perfusion, brains were dissected out sagitally in two parts and post-fixed with Somogyi for 2 h at room temperature. Brain blocks were rinsed successively for 10 min, 30 min and 2 h with 0.1 M PB solution and cryoprotected in 10%, 20% and 30% (wt/vol) sucrose in PB sequentially, until they sank. After cryoprotection, 40-m-thick sagittal sections were obtained with a freezing-sliding cryostat (Leica). Sectioning of WT and Cln7Δex2 brains were performed under the same conditions and sessions. The sections were collected serially in a 12-well plate in 0.1 M PB, rinsed three times for 10 min in 0.1 M PB and used for subsequent immunohistochemistry and lipofuscin observation. The section-containing wells that were not used were kept in freezer mix (30% (vol/vol) polyethylene glycol, 30% (vol/vol) glycerol in 0.1 M PB) at −20° C. […]
Sections were examined with epifluorescence and the appropriate filter sets under an Operetta CLS high-content imaging system (PerkinElmer). […] Images were analysed with the Harmony software with PhenoLOGIC (PerkinElmer). Interest brain areas (cortex, hippocampus and cerebellum) were selected and subsequently quantified as mean intensity per area by using the ‘measure rectangle’ function, which represents the mean intensity of a channel per selected area.

Cc1noc(C)c1Cn1cc(C#N)c2cc(Oc3ccc(NC(=O)[C@@H]4CCCN4)cc3)ccc21 [AZ67, (2S)-N-[4-({3-cyano-1-[(3,5-dimethyl-1,2-oxazol-4-yl)methyl]-1H-indol-5-yl}oxy)phenyl]pyrrolidine-2-carboxamide]
apoptosis level (active Caspase-3) [1]: significantly reduced | accumulation of SCMAS in the cortex (Cln7Δex2 mice): prevented | accumulation of lipofuscin in the cortex (Cln7Δex2 mice): prevented | accumulation of reactive astroglia in the cortex (Cln7Δex2 mice): prevented | hindlimb paralysis (Cln7Δex2 mice): prevented
